The values below come from patent US20100129800A1, “POLYMERS AND THEIR USE AS FLUORESCENT LABELS” (priority 2007, published 2010).

SMILES strings stand for the structures. Like-named read-outs stand apart in the source and are kept apart here.

A short description of this data set: Fluorescence properties of the new compounds (excitation and emission wavelengths). It is filed as physicochemical.

In the case of `CC(=O)N1CC(NC(=O)CNC(=O)c2c3ccccc3nc3ccccc23)C[C@H]1C(=O)N1CC(NC(=O)CNC(=O)c2c3ccccc3nc3c2[nH]c2ccccc23)C[C@H]1C(=O)N1CC(NC(=O)CNC(=O)c2c3ccccc3nc3c2[nH]c2ccccc23)C[C@H]1C(N)=O` (stereo partly shown) [Example 63, N^4-Acetyl-4-amino-{2-(acridine-9-carboxamide)acetyl}prolinyl-4-amino-{2-(10H-indolo[3,2-b]quinoline-11-carboxamide)acetyl}proliny-4-amino-{2-(10H-indolo[3,2-b]quinoline-11-carboxamide)acetyl}prolinamide], under “free compound”, the “Fluorescence Excitation (nm)” value is listed as 272 nm and the “Fluorescence emission (nm)” value is on record as 503 nm.

On to `CC(=O)NC1CC(C(N)=O)N(C(=O)CNC(=O)c2c3ccccc3nc3c2[nH]c2ccccc23)C1` (stereo not shown) [Example 51, N-{2-(10H-indolo[3,2-b]quinoline-11-carboxamide)acetyl}-4-N-acetamidoprolinamide], for which, under “free compound”, the “Fluorescence Excitation (nm)” value is recorded as 347 nm and the “Fluorescence emission (nm)” value was 502 nm.

As for `CC(=O)NC1CC(C(=O)NC2CC(C(=O)NC3CC(C(=O)NC4CC(C(=O)NC5CC(C(N)=O)N(C(=O)CNC(=O)c6cc(-c7ccccc7)nc7ccccc67)C5)N(C(C)=O)C4)N(C(=O)CNC(=O)c4c5ccccc5nc5ccccc45)C3)N(C(C)=O)C2)N(C(=O)CNC(=O)c2c3ccccc3nc3c2[nH]c2ccccc23)C1` (stereo not shown) [Example 64], for the setting “free compound”, the “Fluorescence Excitation (nm)” value came out at 347 nm and the “Fluorescence emission (nm)” value turned out to be 488 nm.

As for `CC(=O)N[C@@H](CCCNC(=O)CNC(=O)c1c2ccccc2nc2ccccc12)C(=O)N[C@@H](CCCNC(=O)CNC(=O)c1c2ccccc2nc2c1[nH]c1ccccc12)C(=O)N[C@@H](CCCNC(=O)CNC(=O)c1c2ccccc2nc2ccccc12)C(N)=O` [Example 69, N^4-Acetyl-5-N-{2-(acridine-9-carboxamide)acetyl}ornithinyl-5-N-{2-(10H-indolo[3,2-b]quinoline-11-carboxamide)acetyl}ornithinyl-5-N-{2-(acridine-9-carboxamide)acetyl}ornithinamide], under “free compound”, the “Fluorescence Excitation (nm)” value amounted to 357 nm and the “Fluorescence emission (nm)” value is recorded as 441 nm.

`CC(=O)NCCN(CC(=O)NCCN(CC(=O)NCCN(CC(=O)NCCCCCCO)C(=O)CNC(=O)c1c2ccccc2nc2ccccc12)C(=O)CNC(=O)c1c2ccccc2nc2ccccc12)C(=O)CNC(=O)c1c2ccccc2nc2ccccc12` [Example 47]: for the setting “free compound”, the “Fluorescence Excitation (nm)” value stood at 360 nm and the “Fluorescence emission (nm)” value worked out at 436 nm.

Take `CC(O)C(COP(=O)(O)OC(C)C(COP(=O)(O)OC(C)C(CO)NC(=O)c1c2ccccc2nc2ccccc12)NC(=O)c1c2ccccc2nc2c1[nH]c1ccccc12)NC(=O)Cn1c2nc3ccccc3c-2cc2ccccc21` (stereo not shown) [Example 45, O-{2-N-(Acridine-9-carbamoyl)-(1-hydroxybut-3-yl)} phosphate (3-1) O-{2-N-(10H-indolo[3,2-d]quinoline-11-carbamoyl)-3-oxybut-1-yl} phosphate (3-1) O-{2-N-(5H-indolo[2,3-b]quinolin-5-yl)acetamido-3-hydroxybut-1-yl)]: where the note is “free compound”, the “Fluorescence Excitation (nm)” value came to 271 nm and the “Fluorescence emission (nm)” value was 449 nm.

On to `CC(=O)NC1CC(C(N)=O)N(C(=O)CNC(=O)c2c3ccccc3nc3ccccc23)C1` (stereo not shown) [Example 50, N-[2-(Acridine-9-carboxamide)acetyl]-4-N-acetamidoprolinamide], for which, for the setting “free compound”, the “Fluorescence Excitation (nm)” value is given as 282 nm and the “Fluorescence emission (nm)” value is 439 nm.

For the compound `CC(=O)NC1CC(C(=O)NC2CC(C(=O)NC3CC(C(=O)NC4CC(C(=O)NC5CC(C(N)=O)N(C(=O)CNC(=O)c6c7ccccc7nc7c6[nH]c6ccccc67)C5)N(C(C)=O)C4)N(C(=O)CNC(=O)c4cc(-c5ccccc5)nc5ccccc45)C3)N(C(C)=O)C2)N(C(=O)CNC(=O)c2c3ccccc3nc3ccccc23)C1` (stereo not shown) [Example 65, N^4-Acetyl-4-amino-{2-(acridine-9-carboxamide)acetyl}prolinyl-4-aminoprolinyl-4-amino-[(2-phenyl-quinoline-4-carboxamide)acetyl]prolinamide-4-aminoprolinyl-4-amino-{2-(10H-indolo[3,2-b]quinoline-11-carboxamide)acetyl}prolinamide], for the setting “free compound”, the “Fluorescence Excitation (nm)” value is on record as 249 nm and the “Fluorescence emission (nm)” value was 442 nm.

As for `CC(O)C(COP(=O)(O)OC(C)C(COP(=O)(O)OC(C)C(CO)NC(=O)c1c2ccccc2nc2ccccc12)NC(=O)c1c2ccccc2nc2c1[nH]c1ccccc12)NC(=O)CNC(=O)c1c2ccccc2nc2ccccc12` (stereo not shown) [Example 38, O-{2-N-(Acridine-9-carbamoyl)-(1-hydroxybut-3-yl)} phosphate (3-1) O-{2-N-(10H-indolo[3,2-d]quinoline-11-carbamoyl)-3-oxybut-1-yl} phosphate (3-1) O-{2-N-(acridine-9-carboxamido)acetamidol-(3-hydroxybut-1-yl)}], for the setting “free compound”, the “Fluorescence Excitation (nm)” value amounted to 359 nm and the “Fluorescence emission (nm)” value is given as 438 nm.

Consider `CC(O)C(COP(=O)(O)OC(C)C(CO)NC(=O)c1cc(-c2ccccc2)nc2ccccc12)NC(=O)c1c2ccccc2nc2c1[nH]c1ccccc12` (stereo not shown) [Example 37, O-{2-N-(2-phenylquinoline-4-carbamoyl-1-hydroxybutan-3-yl)} and O-(2-N-{10H-indolo[3,2-d]quinoline-11-carbamoyl}-3-hydroxybut-1-yl)], for which the “Fluorescence Excitation (nm)” value turned out to be 342 nm and the “Fluorescence emission (nm)” value was 492 nm.

Consider `CC(=O)N[C@@H](CCCNC(=O)CNC(=O)c1c2ccccc2nc2ccccc12)C(=O)N[C@@H](CCCNC(=O)CNC(=O)c1c2ccccc2nc2c1[nH]c1ccccc12)C(=O)N[C@@H](CCCNC(=O)CNC(=O)c1c2ccccc2nc2c1[nH]c1ccccc12)C(N)=O` [Example 70, N^4-Acetyl-5-N-{2-(acridine-9-carboxamide)acetyl}ornithinyl-5-N-{2-(10H-indolo[3,2-b]quinoline-11-carboxamide)acetyl}ornithinyl-5-N-{2-(10H-indolo[3,2-b]quinoline-11-carboxamide)acetyl}ornithinamide], for which the “Fluorescence Excitation (nm)” value (free compound) stood at 248 nm.

In the case of `CC(O)C(COP(=O)(O)OC(C)C(CO)NC(=O)c1c2ccccc2nc2c1[nH]c1ccccc12)NC(=O)c1c2ccccc2nc2c1[nH]c1ccccc12` (stereo not shown) [Example 28, O-{2-N-(10H-indolo[3,2-d]quinoline-11-carbamoyl)-(1-hydroxybut-3-yl)} and O-(2-N-{10H-indolo[3,2-d]quinoline-11-carbamoyl}-3-hydroxybut-1-yl)phosphate], for the setting “free compound”, the “Fluorescence Excitation (nm)” value is recorded as 346 nm and the “Fluorescence emission (nm)” value turned out to be 495 nm.

As for `CC(=O)NC1CC(C(=O)NC2CC(C(=O)NC3CC(C(N)=O)N(C(=O)CNC(=O)c4c5ccccc5nc5ccccc45)C3)N(C(=O)CNC(=O)c3c4ccccc4nc4ccccc34)C2)N(C(=O)CNC(=O)c2c3ccccc3nc3ccccc23)C1` (stereo not shown) [Example 56, N^4-Acetyl-4-amino-{2-(acridine-9-carboxamide)acetyl}prolinyl-4-amino-{2-(acridine-9-carboxamide)acetyl}prolinyl-4-amino-{2-(acridine-9-carboxamide)acetyl}prolinamide], where the note is “free compound”, the “Fluorescence Excitation (nm)” value is listed as 275 nm and the “Fluorescence emission (nm)” value amounted to 440 nm.

For `Cn1c2c3ccccc3nc-2c(NC[C@H](O)CO)c2ccccc21` [Compound 5b, (S)-3-(5-Methyl-5H-indolo[3,2b]quinolin-11-ylamino)propane-1,2-diol], for the setting “free compound”, the “Fluorescence Excitation (nm)” value worked out at 340 nm and the “Fluorescence emission (nm)” value was 469 nm.

Regarding `CC(OP(=O)(O)OCC(O)CNc1c2nc3ccccc3c-2n(C)c2ccccc12)C(CO)NC(=O)c1c2ccccc2nc2c1[nH]c1ccccc12` [Example 41, O-{2-N-(10H-indolo[3,2-d]quinoline-11-carbamoyl)-3-oxybut-1-yl} phosphate (3-1) O-{3-(5-methyl-5H-indolo[3,2-b]quinolin-11-ylamino-(S)-(2hydroxylprop-3-yl)], where the note is “free compound”, the “Fluorescence Excitation (nm)” value worked out at 275 nm and the “Fluorescence emission (nm)” value is on record as 476 nm.

Regarding `CC(O)C(COP(=O)(O)OC(C)C(COP(=O)(O)OC(C)C(CO)NC(=O)c1c2ccccc2nc2ccccc12)NC(=O)c1c2ccccc2nc2ccccc12)NC(=O)c1c2ccccc2nc2ccccc12` (stereo not shown) [Example 43, O-{2-N-(Acridine-9-carbamoyl)-(1-hydroxybut-3-yl)} phosphate (3-1) O-{2-N-(acridine-9-carbamoyl)-(1-hydroxybut-3-yl)} phosphate (3-1) O-{2-N-(acridine-9-carbamoyl)-(3-hydroxybut-1-yl)}], where the note is “free compound”, the “Fluorescence Excitation (nm)” value came to 360 nm and the “Fluorescence emission (nm)” value worked out at 440 nm.

As to `CC(=O)NC1CC(C(=O)NC2CC(C(N)=O)N(C(=O)CNC(=O)c3c4ccccc4nc4ccccc34)C2)N(C(=O)CNC(=O)c2c3ccccc3nc3c2[nH]c2ccccc23)C1` (stereo not shown) [Example 54, 10H-Indolo[3,2-b]quinoline-11-carboxylic acid {2-[4-acetylamino-2-(1-{2-[(acridine-9-carbonyl)-amino]-acetyl}-5-carbamoyl-pyrrolidin-3-ylcarbamoyl)-pyrrolidin-1-yl]-2-oxo-ethyl}-amide], where the note is “free compound”, the “Fluorescence Excitation (nm)” value worked out at 273 nm and the “Fluorescence emission (nm)” value was 498 nm.

In the case of `CC(=O)N[C@@H](CCCNC(=O)CNC(=O)c1c2ccccc2nc2c1[nH]c1ccccc12)C(=O)N[C@@H](CCCNC(=O)CNC(=O)c1c2ccccc2nc2c1[nH]c1ccccc12)C(=O)N[C@@H](CCCNC(=O)CNC(=O)c1c2ccccc2nc2c1[nH]c1ccccc12)C(N)=O` [Example 71, N^4-Acetyl-5-N-{2-(10H-indolo[3,2-b]quinoline-11-carboxamide)acetyl}ornithinyl-5-N-{2-(10H-indolo[3,2-b]quinoline-11-carboxamide)acetyl}ornithinyl-5-N-{2-(10H-indolo[3,2-b]quinoline-11-carboxamide)acetyl}ornithinamide], where the note is “free compound”, the “Fluorescence Excitation (nm)” value turned out to be 338 nm and the “Fluorescence emission (nm)” value was 466 nm.

As to `CC(=O)NC1CC(C(=O)NC2CC(C(N)=O)N(C(=O)CNC(=O)c3c4ccccc4nc4c3[nH]c3ccccc34)C2)N(C(=O)CNC(=O)c2c3ccccc3nc3ccccc23)C1` (stereo not shown) [Example 55, 10H-Indolo[3,2-b]quinoline-11-carboxylic acid (2-{4-[4(4-acetylamino-1-{2-[(acridine-9-carbonyl)-amino]-acetyl}-pyrrolidine-2-carbonyl)-amino]-2-carbamoyl-pyrrolidin-1-yl}-2-oxo-ethyl)-amide], under “free compound”, the “Fluorescence Excitation (nm)” value was 308 nm and the “Fluorescence emission (nm)” value is on record as 500 nm.
